Data taken from patent US6200993A, “Heterosubstituted pyridine derivatives as PDE4 inhibitors” (Merck Frosst Canada & Co., priority 2000, dated 2001).

biological target: T1, GST-Met 248 PDE 4a (purified GST fusion protein of the human recombinant phosphodiesterase IVa (met-248)) (Homo sapiens, UniProt P27815); test: SPA Based PDE Activity Assay (hydrolysis of cAMP to AMP); type: biochemical; details: 100 nM cAMP; baculovirus/Sf-9 expressed enzyme; ten point titration
T1 construct: phosphodiesterase IVa (met-248); made in house; host or cells: Sf-9 insect cells (baculovirus)
T1 sequence (P27815 248-886 limits assumed): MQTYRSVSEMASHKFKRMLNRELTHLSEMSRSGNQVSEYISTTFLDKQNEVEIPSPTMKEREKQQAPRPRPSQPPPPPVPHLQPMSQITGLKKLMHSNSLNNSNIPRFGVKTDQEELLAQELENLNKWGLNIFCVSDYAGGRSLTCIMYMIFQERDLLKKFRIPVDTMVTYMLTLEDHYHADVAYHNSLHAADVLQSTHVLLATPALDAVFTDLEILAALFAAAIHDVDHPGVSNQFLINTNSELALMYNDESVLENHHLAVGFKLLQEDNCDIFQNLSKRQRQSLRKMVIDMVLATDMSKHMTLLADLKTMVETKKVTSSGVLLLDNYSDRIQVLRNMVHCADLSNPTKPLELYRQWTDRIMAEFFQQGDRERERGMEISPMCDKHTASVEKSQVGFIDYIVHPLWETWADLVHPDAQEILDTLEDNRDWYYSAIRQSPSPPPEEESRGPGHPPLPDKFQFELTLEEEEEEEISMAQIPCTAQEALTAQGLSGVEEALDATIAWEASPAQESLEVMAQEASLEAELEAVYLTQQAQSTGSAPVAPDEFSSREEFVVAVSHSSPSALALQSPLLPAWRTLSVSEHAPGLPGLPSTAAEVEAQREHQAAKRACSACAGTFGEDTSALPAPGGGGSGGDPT
Description: SPA Based PDE Activity Assay Protocol
Compounds which inhibit the hydrolysis of cAMP to AMP by the type-IV cAMP-specific phosphodiesterases were screened in 96-well plate format as follows:
In a 96 well-plate at 30° C. was added the test compound (dissolved in 2 μl DMSO), […] of substrate buffer containing [2,8-^3 H] adenosine 3',5'-cyclic phosphate (cAMP, 100 nM to 50 μM), 10 mM MgCl2, 1 mM EDTA, 50 mM Tris, pH 7.5. The reaction was initiated by the addition of […] of human recombinant PDE-IV (the amount was controlled so that ~10% product was formed in 10 min.). The reaction was stopped after 10 min. by the addition of 1 mg of PDE-SPA beads (Amersham). The product AMP generated was quantified on a Microbeta 96-well plate counter. The signal in the absence of enzyme was defined as the background. 100% activity was defined as the signal detected in the presence of enzyme and DMSO with the background subtracted. Percentage of inhibition was calculated accordingly. IC50 value was approximated with a non-linear regression fit using the standard 4-parameter/multiple binding sites equation from a ten point titration.
IC50 values shown in Table 7 were determined with 100 nM cAMP using the purified GST fusion protein of the human recombinant phosphodiesterase IVa (met-248) produced from a baculovirus/Sf-9 expression system.

Compared with O=C(c1ccc(F)cc1)N(C(=O)c1ccc(F)cc1)c1ccc(C(Cc2cc[n+]([O-])cc2)c2ccc(OC(F)F)c(OC(F)F)c2)cn1 (single isomer, unassigned; enantiomer-2) [Example 99, (ENANTIOMER-2)-4-{2-[3,4-BIS(DIFLUOROMETHOXY)PHENYL]-2-{6-[N,N-DI(4-FLUOROBENZAMIDE)]3-PYRIDYL}ETHYL}PYRIDINE-N-OXIDE], COc1ccc(N(C)c2ccc(C(Cc3cc[n+]([O-])cc3)c3ccc(OC(F)F)c(OC(F)F)c3)cn2)cc1 (racemic) [Example 69, 4-{2-[3,4-Bis(difluoromethoxy)phenyl]-2-[6-(N-methyl-N-4-methoxyphenylamino)3-pyridyl]ethyl}pyridine-N-oxide] is 3.7-fold higher in IC50: 0.84 nM for the first, 3.1 nM for the second.

Going from CC(C)(Nc1ccc(C(Cc2cc[n+]([O-])cc2)c2ccc(OC(F)F)c(OC(F)F)c2)cn1)c1ccccc1 (racemic) [Example 11, 4-{2-[3,4-Bis(difluoromethoxy)phenyl]-2-[6-(1-methyl-1-phenylethylamino)3-pyridyl]ethyl}pyridine-N-oxide] to FC(F)Oc1ccc(C(Cc2ccncc2)c2ccc(NCc3ccccc3)nc2)cc1OC(F)F (racemic) [Example 1, 4-{2-[3,4-Bis(difluoromethoxy)phenyl]-2-[6-(benzylamino)3-pyridyl]ethyl}pyridine], the IC50 falls from 1.63 nM to 0.75 nM (2.2-fold). The second is the more potent here.

Work on CN(Cc1ccccc1)c1ccc(C(Cc2ccncc2)c2ccc(OC(F)F)c(OC(F)F)c2)cn1 (racemic) [Example 54, 4-{2-[3,4-BIS(DIFLUOROMETHOXY)PHENYL]-2-[6-(N-METHYL-N-BENZYLAMINO)3-PYRIDYL]ETHYL}PYRIDINE] yielded an IC50 of 2.84 nM.
